Reference: patent US4683292A, “Immunotherapeutic polypeptide agents which bind to lymphocyte immunoglobulin FC receptors” (Immunetech, Inc., priority 1983, dated 1987)
Ends that are not written are not given here. Peptide text beside a SMILES is read from it.

Key:
[1] = test system: granulocytes, monocytes and macrophages; conditions: in vitro; cited from earlier work
[2] = test system: rodent mast cells; conditions: Stanworth et al. 1979; cited from earlier work
[3] = test system: human mast cells; conditions: Stanworth et al. 1979; cited from earlier work
[4] = test system: human monocyte IgG Fc receptors; conditions: Ciccimarra et al. 1975; Ratcliffe and Stanworth 1982; cited from earlier work
[5] = molecular target: T1, IgE Fc receptor of human basophils (Homo sapiens, UniProt P12319); conditions: Plummer et al. 1983; cited from earlier work
T1 construct: host or cells: human basophils
T1 sequence (P12319 26-257): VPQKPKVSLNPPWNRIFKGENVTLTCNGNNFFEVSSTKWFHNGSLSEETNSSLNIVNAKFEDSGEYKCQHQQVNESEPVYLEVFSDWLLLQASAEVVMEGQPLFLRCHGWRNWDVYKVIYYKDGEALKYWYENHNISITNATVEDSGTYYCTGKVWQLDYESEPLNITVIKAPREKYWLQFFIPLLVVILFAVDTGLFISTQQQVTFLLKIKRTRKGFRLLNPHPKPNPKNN
T1 sequence (Q01362 1-244 partner): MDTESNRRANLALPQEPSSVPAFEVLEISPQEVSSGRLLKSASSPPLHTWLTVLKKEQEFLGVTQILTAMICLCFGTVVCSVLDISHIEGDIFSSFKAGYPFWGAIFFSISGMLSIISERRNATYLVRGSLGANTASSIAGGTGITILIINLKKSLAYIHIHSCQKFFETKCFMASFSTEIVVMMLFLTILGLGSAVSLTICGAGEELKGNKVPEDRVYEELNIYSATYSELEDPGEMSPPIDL
T1 sequence (P30273 19-86 partner): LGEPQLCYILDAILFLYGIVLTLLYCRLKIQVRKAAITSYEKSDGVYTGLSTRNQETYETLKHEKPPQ

[6] = test system: systemic allergic disease; conditions: humans, subcutaneous injection; cited from earlier work
[7] = test system: BASOPHIL Fc Receptor IgG; experiment: Rosette inhibition assay, IgG-coated ox erythrocytes, basophils; format: binding, human; conditions: relative to intact monomeric myeloma protein at equal concentration; 15 min preincubation
Method: (§1) The Fc receptor blocking activity of the subject peptides was assessed using well established techniques and procedures. In particular, a rosette assay was employed which uses either monomeric, chemically or heat aggregated human IgG or IgE obtained from human myeloma sera. (Gonzalez-Molina, et al., J. Clin. Invest., 59, 616 (1977); Spiegelberg, et al. in Immunoassays: Clinical Laboratory Techniques for the 1980's (Alan R. Liss: New York, 1980), pp. 287-300). The IgG or IgE is then adsorbed to ox-erythrocytes which has been previously treated with trypsin and pyruvic aldehyde. […] Addition of inhibitor myeloma proteins or inhibitor peptides produced a reproducable reduction of rosette formation, […], phosphate buffered isotonic saline, was used alone as control and then multiplying the calculated quotient by 100.
(§2) Table 1 presents the inhibition observed by representative peptide inhibitors calculated as a percentage of the inhibition observed with intact, monomeric myeloma proteins. […]

[8] = test system: NEUTROPHIL (PMN) Fc Receptor IgG; experiment: Rosette inhibition assay, IgG-coated ox erythrocytes, fresh human PMNs; format: binding; conditions: relative to intact monomeric myeloma protein at equal concentration; 15 min preincubation
Method: as §1, §2

[9] = test system: MONOCYTE/MACROPHAGE Fc Receptor IgG; experiment: Rosette inhibition assay, IgG-coated ox erythrocytes, monocytes / U937; format: binding, human; conditions: relative to intact monomeric myeloma protein at equal concentration; 15 min preincubation
Method: as §1, §2

Gly-Gln-Pro-Arg (GQPR; printed: Gly-Gln-Pro-Arg) [Rigin, tetrapeptide analogue of Tuftsin]
stimulation of phagocytosis [1]: phagocytosis-stimulating abilities similar to those of Tuftsin

PRKTKGSGFFVF [portion of Cε 4 of human IgE, aa 495-506]
degranulation of mast cells [2]: cause degranulation | degranulation of mast cells [3]: cause degranulation

QYDSTYR [heptapeptide identical to IgG aa 295-301]
blocking of IgG binding to human monocyte IgG Fc receptors [4]: slightly block

Asp-Ser-Asp-Pro-Arg (DSDPR; printed: Asp-Ser-Asp-Pro-Arg) [pentapeptide derived from human IgE Cε 3 at aa 320-324]
blocking of human IgE binding to basophil IgE Fc receptors [5]: up to 70% | inhibition of systemic allergic disease [6]: inhibit systemic allergic disease

CC(=O)N[C@@H](CCC(N)=O)C(=O)N1CCC[C@H]1C(=O)N[C@@H](CCC(=O)O)C(=O)N[C@@H](CC(N)=O)C(=O)O [Ac--Gln--Pro--Glu--Asn, Ac-Gln-Pro-Glu-Asn] (Ac-QPEN-OH)
Rosette inhibition expressed as percent inhibition by monomeric IgG, basophil Fc receptor IgG [7]: 74% | Rosette inhibition expressed as percent inhibition by monomeric IgG, neutrophil (PMN) Fc receptor IgG [8]: 95% | Rosette inhibition expressed as percent inhibition by monomeric IgG, monocyte/macrophage Fc receptor IgG [9]: 19%
